Here are results for 9 molecules from ChEMBL document CHEMBL1158227, “Effect of Polygonum hydropiper sulfated flavonoids on lens aldose reductase and related enzymes” (J Nat Prod, 1996).

Assay [1] is described as follows: Inhibition of bovine liver NADH oxidase. Also on record: species or system Bos taurus.
Assay [2] concerns the target Aldo-keto reductase family 1 member B1 (Sus scrofa, UniProt P80276). Nature of the assay: Inhibition of pig lens aldose reductase by spectrophotometry.
The nature of assay [3]: Inhibition of pig kidney aldehyde reductase by spectrophotometry. Details: species or system Sus scrofa.
For assay [4], the target named is Aldo-keto reductase family 1 member B1 (Sus scrofa) (UniProt P80276). Briefly: Inhibition of pig lens aldose reductase at 1.8 uM by Lineweaver-Burke plot.
For assay [5] the target is unchanged. Briefly: Inhibition of pig lens aldose reductase at 0.54 uM by Lineweaver-Burke plot.

pIC50: −log10 of the molar value. Activity calls are given as the source filed them. The rule behind the calls is not given here.

For orientation: pIC50 means the IC50 on a negative log10 scale, so that one unit is a factor of ten. Turning to `COc1cc(O)c2c(=O)c(OS(=O)(=O)O)c(-c3ccc(O)c(OC)c3)oc2c1`, the figures for the pIC50 in assay [1], in assay [2] and in assay [3] were under 4.17, 4.52 and 4.36, respectively.
As for `COc1ccc(-c2oc3cc(OS(=O)(=O)O)cc(O)c3c(=O)c2O[C@@H]2O[C@H](CO)[C@@H](O)[C@H](O)[C@H]2O)cc1O`, the pIC50 in assay [1] is under 4.30; in assay [2], 5.30; in assay [3] it was under 4.30.
Turning to `O=c1c(OS(=O)(=O)O)c(-c2ccc(O)c(O)c2)oc2cc(O)cc(O)c12`, the pIC50 in assay [1] is under 4.15; in assay [2], 4.29; in assay [3], 4.25.
As to `COc1cc(-c2oc3cc(OS(=O)(=O)O)cc(O)c3c(=O)c2OS(=O)(=O)O)ccc1O`, the results for the pIC50 in assay [1], in assay [2] and in assay [3] were under 4.27, 5.74 and 4.31, respectively. Besides, the result in assay [4] and in assay [5] was Active.
For the molecule `O=c1c(O[C@@H]2O[C@H](CO)[C@@H](O)[C@H](O)[C@H]2O)c(-c2ccc(O)c(O)c2)oc2cc(O)cc(O)c12` [ISOQUERCETIN], the negative-log IC50 (pIC50) in assay [1] was under 4.19; in assay [2], 4.80; in assay [3] it was under 4.19.
`COc1cc(-c2oc3cc(O)cc(O)c3c(=O)c2O)ccc1O` [ISORHAMNETIN]: the pIC50 was 4.05 in assay [1], under 4.02 in assay [2] and under 4.02 in assay [3].
Regarding `COc1cc(-c2oc3cc(O)cc(O)c3c(=O)c2OS(=O)(=O)O)ccc1O` [PERSICARIN], the results for the negative logarithm of the IC50 (pIC50) in assay [1], in assay [2] and in assay [3] were under 4.16, 4.16 and under 4.16, respectively.
As to `O=c1c(O)c(-c2ccc(O)c(O)c2)oc2cc(O)cc(O)c12` [QUERCETIN], the values for the negative-log IC50 (pIC50) in assay [1], in assay [2] and in assay [3] were 4.19, 4.30 and under 4.04, respectively.
Turning to `COc1cc(O)c2c(=O)c(O)c(-c3ccc(O)c(OC)c3)oc2c1` [RHAMNAZIN], the pIC50 in assay [1], in assay [2] and in assay [3] was under 4.04 throughout.
